Assay results: US12643882B2, “Inhibitors of human respiratory syncytial virus and metapneumovirus” (priority 2022, dated 2026)
Read-outs that look alike come from different tables or passages of the source.

What was measured:
RSV-A2-GFP virus = experiment: microbe, parasite or virus in culture; assay type: cell-based, Human Respiratory Syncytial Virus
Procedure, shortened: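 Assay-ready frozen Calu-1 cells at 20,000 cells/mL were infected with recombinant RSV-A2-GFP (MOI 1.2) in DMEM with 2% FBS. Cells were exposed to 10-point 3-fold compound dilutions for 96 h at 37° C. GFP-positive cells were counted by imaging, with same-well CellTiter-Glo for cytotoxicity, and IC50 and CC50 came from 4-parameter logistic fits.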

hMPV-GFP virus = experiment: microbe, parasite or virus in culture; assay type: cell-based, human metapneumovirus
Procedure, shortened: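 VERO cells infected with GFP-expressing hMPV at MOI 1.25 were incubated 48 h at 37 °C with compound in 10-point 3-fold dilutions (typically 40,300–2 nM final). GFP-positive cells were counted by imaging. Same-well CellTiter-Glo gave cytotoxicity, and IC50/CC50 came from 4-parameter logistic fits.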

[1] = Calu-1 cells infected with RSV-A2-GFP, 96 hrs, GFP-expressing cells counted, read-out: RSV EC50
[2] = VERO cells infected with hMPV-GFP, 48 hrs, GFP-expressing cells counted, read-out: hMPV EC50
[3] = human respiratory syncytial virus, Calu-1, 96 h, read-out: RSV EC50, Calu-1 cells infected with RSV-A2-GFP, 96 hrs, GFP-expressing cells counted
[4] = human metapneumovirus, Vero, 48 h, read-out: hMPV EC50, VERO cells infected with hMPV-GFP, 48 hrs, GFP-expressing cells counted

Compound | EC50 (RSV-A2-GFP virus; [1]) | EC50 (hMPV-GFP virus; [2]) | other results
Cc1nc(-c2ncccn2)sc1C(=O)N1C[C@@H]2[C@H](C1)[C@H]2Oc1cc(C(C)(C)N)cc(-c2ccc(Cl)c(F)c2)n1 [Example 18, ((1R,5S,6s)-6-((4-(2-aminopropan-2-yl)-6-(4-chloro-3-fluorophenyl)pyridin-2-yl)oxy)-3-azabicyclo[3.1.0]hexan-3-yl)(4-methyl-2-(pyrimidin-2-yl)thiazol-5-yl)methanone] | < 10 nM | 10 to 100 nM | –
Cc1nc(-c2ncccn2)sc1C(=O)N1C[C@@H]2[C@H](C1)[C@H]2Oc1cc(C(C)(C)N)cc(-c2ccc(F)cc2F)n1 [Example 97, ((1R,5S,6s)-6-((4-(2-aminopropan-2-yl)-6-(2,4-difluorophenyl)pyridin-2-yl)oxy)-3-azabicyclo[3.1.0]hexan-3-yl)(4-methyl-2-(pyrimidin-2-yl)thiazol-5-yl)methanone] | – | – | EC50 (RSV-A2-GFP virus; [3]): < 10 nM; EC50 (hMPV-GFP virus; [4]): 10 to 100 nM
CC(O)c1nn(-c2ncccn2)cc1C(=O)N1C[C@@H]2C(Oc3cc(C(C)(C)N)cc(-c4ccc(F)c(F)c4)n3)[C@@H]2C1 (single isomer, unassigned; enantiomer 2) [Example 96B] | < 10 nM | > 100 nM | –
Cc1nn(-c2ncccn2)cc1C(=O)N1C[C@@H]2[C@H](C1)[C@H]2Oc1cc(C(C)(C)N)cc(-c2ccc(Cl)cc2)n1 [Example 85, ((1R,5S,6s)-6-((4-(2-aminopropan-2-yl)-6-(4-chlorophenyl)pyridin-2-yl)oxy)-3-azabicyclo[3.1.0]hexan-3-yl)(3-methyl-1-(pyrimidin-2-yl)-1H-pyrazol-4-yl)methanone] | < 10 nM | 10 to 100 nM | –
Cc1nc(-c2ncccn2)sc1C(=O)N1C[C@@H]2[C@H](C1)[C@H]2Oc1cc(C(C)(C)N)cc(-c2ccc(C3CC3)cc2)n1 [Example 22, ((1R,5S,6s)-6-((4-(2-aminopropan-2-yl)-6-(4-cyclopropylphenyl)pyridin-2-yl)oxy)-3-azabicyclo[3.1.0]hexan-3-yl)(4-methyl-2-(pyrimidin-2-yl)thiazol-5-yl)methanone] | < 10 nM | > 100 nM | –
Cc1ccc(-c2cc(C(C)(C)N)cc(O[C@H]3[C@@H]4CN(C(=O)c5sc(-c6ncccn6)nc5C)C[C@@H]43)n2)cc1F [Example 37, ((1R,5S,6s)-6-((4-(2-aminopropan-2-yl)-6-(3-fluoro-4-methylphenyl)pyridin-2-yl)oxy)-3-azabicyclo[3.1.0]hexan-3-yl)(4-methyl-2-(pyrimidin-2-yl)thiazol-5-yl)methanone] | < 10 nM | 10 to 100 nM | –
Cc1nc(-c2ncccn2)sc1C(=O)N1C[C@@H]2[C@H](C1)[C@H]2Oc1cc(C(C)(C)N)cc(-c2ccc(C(F)(F)F)c(Cl)c2)n1 [Example 29, ((1R,5S,6s)-6-((4-(2-aminopropan-2-yl)-6-(3-chloro-4-(trifluoromethyl)phenyl)pyridin-2-yl)oxy)-3-azabicyclo[3.1.0]hexan-3-yl)(4-methyl-2-(pyrimidin-2-yl)thiazol-5-yl)methanone] | < 10 nM | 10 to 100 nM | –
Cc1nn(-c2ncccn2)cc1C(=O)N1C[C@@H]2[C@H](C1)[C@H]2Oc1cc(C(C)(C)N)cc(-c2ccc(Cl)c(F)c2)n1 [Example 84, ((1R,5S,6s)-6-((4-(2-aminopropan-2-yl)-6-(4-chloro-3-fluorophenyl)pyridin-2-yl)oxy)-3-azabicyclo[3.1.0]hexan-3-yl)(3-methyl-1-(pyrimidin-2-yl)-1H-pyrazol-4-yl)methanone] | < 10 nM | > 100 nM | –
Cc1nn(-c2ncccn2)cc1C(=O)N1C[C@H]2[C@H](Oc3cc(C(C)(C)N)cc(-c4ccc(F)cc4F)n3)[C@@]2(C)C1 (single isomer, unassigned; enantiomer 2) [Example 109B] | – | – | EC50 (RSV-A2-GFP virus; read-out: RSV EC50, Calu-1 cells infected with RSV-A2-GFP, 96 hrs, GFP-expressing cells counted): < 10 nM; EC50 (hMPV-GFP virus; read-out: hMPV EC50, VERO cells infected with hMPV-GFP, 48 hrs, GFP-expressing cells counted): 10 to 100 nM
Cc1nc(-c2ncccn2)sc1C(=O)N1C[C@@H]2[C@H](C1)[C@H]2Oc1cc(C(C)(C)N)cc(-c2ccc(C#N)c(F)c2)n1 [Example 36, 4-(4-(2-aminopropan-2-yl)-6-(((1R,5S,6s)-3-(4-methyl-2-(pyrimidin-2-yl)thiazole-5-carbonyl)-3-azabicyclo[3.1.0]hexan-6-yl)oxy)pyridin-2-yl)-2-fluorobenzonitrile] | < 10 nM | 10 to 100 nM | –
Cn1nc(-c2ncccn2)cc1C(=O)N1C[C@@H]2[C@H](C1)[C@H]2Oc1cc(C(C)(C)N)cc(-c2ccc(Cl)cc2)n1 [Example 58, ((1R,5S,6s)-6-((4-(2-aminopropan-2-yl)-6-(4-chlorophenyl)pyridin-2-yl)oxy)-3-azabicyclo[3.1.0]hexan-3-yl)(1-methyl-3-(pyrimidin-2-yl)-1H-pyrazol-5-yl)methanone] | < 10 nM | 10 to 100 nM | –
Cc1nc(-c2ncccn2)[nH]c1C(=O)N1C[C@@H]2[C@H](C1)[C@H]2Oc1cc(C(C)(C)N)cc(-c2ccc(F)cc2)n1 [Example 75, ((1R,5S,6s)-6-((4-(2-aminopropan-2-yl)-6-(4-fluorophenyl)pyridin-2-yl)oxy)-3-azabicyclo[3.1.0]hexan-3-yl)(4-methyl-2-(pyrimidin-2-yl)-1H-imidazol-5-yl)methanone] | 10 to 100 nM | > 100 nM | –
Cc1nc(-c2ncccn2)sc1C(=O)N1C[C@@H]2[C@H](C1)[C@H]2Oc1cc(C(C)(C)N)cc(Cc2ccc(F)cc2)n1 [Example 126, ((1R,5S,6s)-6-((4-(2-aminopropan-2-yl)-6-(4-fluorobenzyl)pyridin-2-yl)oxy)-3-azabicyclo[3.1.0]hexan-3-yl)(4-methyl-2-(pyrimidin-2-yl)thiazol-5-yl)methanone] | – | – | EC50 (RSV-A2-GFP virus; [3]): < 10 nM; EC50 (hMPV-GFP virus; [4]): > 100 nM
Cc1nc(-c2ncccn2)sc1C(=O)N1C[C@@H]2C(Oc3cc(C(C)(C)N)cc(C4=CCC(C(F)(F)F)CC4)n3)[C@@H]2C1 (mixture of isomers) [Example 47, rac-((1R,5S,6s)-6-((4-(2-aminopropan-2-yl)-6-(4-(trifluoromethyl)cyclohex-1-en-1-yl)pyridin-2-yl)oxy)-3-azabicyclo[3.1.0]hexan-3-yl)(4-methyl-2-(pyrimidin-2-yl)thiazol-5-yl)methanone] | < 10 nM | > 100 nM | –
Cc1cccc(-c2cc(C(=O)N3C[C@@H]4[C@H](C3)[C@H]4Oc3cc(C(C)(C)N)cc(-c4ccc(F)cc4)n3)n(C)n2)n1 [Example 51, ((1R,5S,6s)-6-((4-(2-aminopropan-2-yl)-6-(4-fluorophenyl)pyridin-2-yl)oxy)-3-azabicyclo[3.1.0]hexan-3-yl)(1-methyl-3-(6-methylpyridin-2-yl)-1H-pyrazol-5-yl)methanone] | < 10 nM | > 100 nM | –
Cc1cccc(-c2cc(C(C)(C)N)cc(O[C@H]3[C@@H]4CN(C(=O)c5sc(-c6ncccn6)nc5C)C[C@@H]43)n2)c1F [Example 40, ((1R,5S,6s)-6-((4-(2-aminopropan-2-yl)-6-(2-fluoro-3-methylphenyl)pyridin-2-yl)oxy)-3-azabicyclo[3.1.0]hexan-3-yl)(4-methyl-2-(pyrimidin-2-yl)thiazol-5-yl)methanone] | < 10 nM | > 100 nM | –
Cc1nc(-c2ncccn2)sc1C(=O)N1C[C@@H]2[C@H](C1)[C@H]2Nc1cc(C(C)(C)N)cc(-c2ccc(F)cc2)n1 [Example 7, ((1R,5S,6s)-6-((4-(2-aminopropan-2-yl)-6-(4-fluorophenyl)pyridin-2-yl)amino)-3-azabicyclo[3.1.0]hexan-3-yl)(4-methyl-2-(pyrimidin-2-yl)thiazol-5-yl)methanone] | – | – | EC50 (RSV-A2-GFP virus; [3]): < 10 nM; EC50 (hMPV-GFP virus; [4]): > 100 nM
Cc1cc(F)ccc1-c1cc(C(C)(C)N)cc(O[C@H]2[C@@H]3CN(C(=O)c4sc(-c5ncccn5)nc4C)C[C@@H]32)n1 [Example 39, ((1R,5S,6s)-6-((4-(2-aminopropan-2-yl)-6-(4-fluoro-2-methylphenyl)pyridin-2-yl)oxy)-3-azabicyclo[3.1.0]hexan-3-yl)(4-methyl-2-(pyrimidin-2-yl)thiazol-5-yl)methanone] | < 10 nM | 10 to 100 nM | –
CC(C)(N)c1cc(O[C@@H]2C[C@@H]3[C@H]2CN3C(=O)c2cnc(-c3ncccn3)s2)nc(-c2ccc(F)cc2)c1 (single isomer, unassigned) [Example 2] | – | – | EC50 (RSV-A2-GFP virus; [3]): 10 to 100 nM; EC50 (hMPV-GFP virus; [4]): > 100 nM
CC(C)(N)c1cc(O[C@H]2[C@@H]3CN(C(=O)c4cn(-c5ncccn5)nc4C(F)F)C[C@@H]32)nc(-c2ccc(F)cc2)c1 [Example 66, ((1R,5S,6s)-6-((4-(2-aminopropan-2-yl)-6-(4-fluorophenyl)pyridin-2-yl)oxy)-3-azabicyclo[3.1.0]hexan-3-yl)(3-(difluoromethyl)-1-(pyrimidin-2-yl)-1H-pyrazol-4-yl)methanone] | < 10 nM | > 100 nM | –
Cc1nn(-c2ncccn2)cc1C(=O)N1C[C@@H]2[C@H](C1)[C@H]2Oc1cc(C(C)(C)N)cc(-c2ccc3c(c2)CC3(F)F)n1 [Example 99, ((1R,5S,6s)-6-((4-(2-aminopropan-2-yl)-6-(7,7-difluorobicyclo[4.2.0]octa-1(6),2,4-trien-3-yl)pyridin-2-yl)oxy)-3-azabicyclo[3.1.0]hexan-3-yl)(3-methyl-1-(pyrimidin-2-yl)-1H-pyrazol-4-yl)methanone] | < 10 nM | > 100 nM | –
